Data as given in ChEMBL document CHEMBL3259800, “Design, synthesis and biological evaluation of novel 4-alkapolyenylpyrrolo[1,2-a]quinoxalines as antileishmanial agents--part III” (Eur J Med Chem, 2014).

Assays:
[1] = Selectivity index, ratio of CC50 for human HepG2 cells to IC50 for Leishmania major MHOM/IL/81/BNI promastigotes; assay type: functional
[2] = Selectivity index, ratio of CC50 for mouse J774A1 cells to IC50 for Leishmania mexicana MHOM/MX/95/NAN1 promastigotes; assay type: functional, J774.A1
[3] = tested on: Leishmania donovani; test: Antimicrobial activity against Leishmania donovani MHOM/IN/00/DEVI promastigotes after 72 hrs by MTT assay; assay type: functional, organism-based
[4] = Selectivity index, ratio of CC50 for human HepG2 cells to IC50 for chloroquine-resistant and mefloquine-sensitive Plasmodium falciparum W2; assay type: functional
[5] = Cytotoxicity against human HepG2 cells after 72 hrs by MTT assay; assay type: cell-based
[6] = tested on: Leishmania major; test: Antimicrobial activity against Leishmania major MHOM/IL/81/BNI promastigotes after 96 hrs by resazurin-based assay; assay type: functional, organism-based
[7] = tested on: Plasmodium falciparum; test: Antimicrobial activity against chloroquine-resistant and mefloquine-sensitive Plasmodium falciparum W2 infected in human erythrocytes after 48 hrs by SYBR Green I assay; assay type: functional, organism-based; details: W2, 48 h
[8] = tested on: Trypanosoma brucei brucei; test: Antimicrobial activity against Trypanosoma brucei brucei Antat 1.1 after 24 hrs by haemocytometric analysis; assay type: functional, organism-based; details: Antat 1.1, 24 h
[9] = tested on: Leishmania mexicana; test: Antimicrobial activity against Leishmania mexicana MHOM/MX/95/NAN1 promastigotes after 96 hrs by resazurin-based assay; assay type: functional, organism-based; details: MHOM/MX/95/NAN1, 96 h
[10] = Selectivity index, ratio of CC50 for mouse J774A1 cells to IC50 for Leishmania donovani MHOM/IN/00/DEVI promastigotes; assay type: functional, J774.A1
[11] = Selectivity index, ratio of CC50 for human HepG2 cells to IC50 for Leishmania mexicana MHOM/MX/95/NAN1 promastigotes; assay type: functional
[12] = Selectivity index, ratio of CC50 for human HepG2 cells to IC50 for Trypanosoma brucei brucei Antat 1.1; assay type: functional
[13] = Selectivity index, ratio of CC50 for mouse J774A1 cells to IC50 for Leishmania major MHOM/IL/81/BNI promastigotes; assay type: functional, J774.A1
[14] = Cytotoxicity against mouse J774A1 cells after 72 hrs by MTT assay; assay type: cell-based, J774.A1
[15] = tested on: Plasmodium falciparum; test: Antimicrobial activity against chloroquine and mefloquine-sensitive Plasmodium falciparum 3D7 infected in human erythrocytes after 48 hrs by SYBR Green I assay; assay type: functional, organism-based; details: 3D7, 48 h
[16] = Selectivity index, ratio of CC50 for human HepG2 cells to IC50 for chloroquine and mefloquine-sensitive Plasmodium falciparum 3D7; assay type: functional
[17] = Selectivity index, ratio of CC50 for human HepG2 cells to IC50 for Leishmania donovani MHOM/IN/00/DEVI promastigotes; assay type: functional
[18] = tested on: Leishmania major; test: Ratio of pentamidine IC50 to compound IC50 for Leishmania major MHOM/IL/81/BNI promastigotes; assay type: functional

Structure (SMILES) | Ratio CC50/IC50 [1] | Ratio CC50/IC50 [2] | IC50 [3] [µM] | Ratio CC50/IC50 [4] | CC50 at 72 h [5] [µM] | IC50 [6] [µM] | IC50 [7] [µM] | IC50 [8] [µM] | IC50 [9] [µM] | Ratio CC50/IC50 [10] | Ratio CC50/IC50 [11] | Ratio CC50/IC50 [12] | Ratio CC50/IC50 [13] | CC50 at 72 h [14] [µM] | IC50 [15] [µM] | Ratio CC50/IC50 [16] | Ratio CC50/IC50 [17] | Ratio IC50 [18]
C/C=C/C=C/c1nc2ccccc2n2cccc12 | 2.2 | 0.6 | 9.8 | 4.1 | 10.3 | 4.7 | 2.5 | 2.4 | 7.6 | 0.4 | 1.4 | 4.3 | 0.9 | 4.3 | 2.4 | 4.3 | 1.1 | 
C/C=C/C=C/c1nc2cc(OC)ccc2n2cccc12 | 1.9 | 0.8 | 5.3 | 1.7 | 5.8 | 3 | 3.4 | 2.1 | 3.3 | 0.5 | 1.8 | 2.8 | 0.8 | 2.5 | 3.3 | 1.8 | 1.1 | 
C/C=C/C=C/c1nc2ccc(OC)cc2n2cccc12 | 3.2 | 1.4 | 5.4 | 3.6 | 8.7 | 2.7 | 2.4 | 1.8 | 3.7 | 1 | 2.4 | 4.8 | 2 | 5.3 | 1.5 | 5.8 | 1.6 | 
C/C=C/C=C/c1nc2cccc(OC)c2n2cccc12 | 2 | 0.3 | 7.2 | 2.5 | 6.5 | 3.3 | 2.6 | 2.2 | 8 | 0.4 | 0.8 | 2.9 | 0.8 | 2.7 | 3.2 | 2 | 0.9 | 
CCC/C=C/C=C/c1nc2ccccc2n2cccc12 | 2.4 | 0.4 | 7.6 | 8.5 | 9.3 | 3.9 | 1.1 |  | 12.1 | 0.6 | 0.8 |  | 1.2 | 4.7 | 2.5 | 3.7 | 1.2 | 
CCC/C=C/C=C/c1nc2cc(OC)ccc2n2cccc12 | 3.1 | 2 | 8.6 | 11 | 8.8 | 2.8 | 0.8 | 1.9 | 3.2 | 0.8 | 2.8 | 4.6 | 2.3 | 6.5 | 2.3 | 3.8 | 1 | 
CCC/C=C/C=C/c1nc2ccc(OC)cc2n2cccc12 | 2.7 | 1.5 | 7.6 | 1.8 | 20.1 | 7.4 | 11 |  | 5.1 | 1 | 4 |  | 1.1 | 7.8 | 3.3 | 6.1 | 2.6 | 
CCC/C=C/C=C/c1nc2cccc(OC)c2n2cccc12 | 4.5 | 0.7 | 9.9 | 13.4 | 17.4 | 3.9 | 1.3 |  | 10.3 | 0.7 | 1.7 |  | 1.8 | 7.1 | 1.6 | 10.9 | 1.8 | 
CCCC/C=C/C=C/c1nc2ccccc2n2cccc12 | 2.2 | 1.4 | 13.7 | 1.2 | 8.2 | 3.7 | 6.7 |  | 6.1 | 0.6 | 1.3 |  | 2.4 | 8.8 | 6.3 | 1.3 | 0.6 | 
CCCC/C=C/C=C/c1nc2cc(OC)ccc2n2cccc12 | 7.3 | 1.2 | 12.1 | 1.3 | 18.3 | 2.5 | 13.8 | 1.1 | 6.6 | 0.7 | 2.8 | 16.6 | 3.2 | 8 | 8.9 | 2.1 | 1.5 | 
CCCC/C=C/C=C/c1nc2ccc(OC)cc2n2cccc12 | 5.2 | 2.6 | 14.7 | 1.7 | 22.9 | 4.4 | 13.3 | 1.3 | 3.8 | 0.7 | 6 | 17.6 | 2.3 | 10 | 10.4 | 2.2 | 1.6 | 
CCCC/C=C/C=C/c1nc2cccc(OC)c2n2cccc12 | 2.7 | 1.4 | 11.6 | 0.8 | 15.8 | 5.8 | 19.8 |  | 4.5 | 0.6 | 3.5 |  | 1.1 | 6.4 | 9.8 | 1.6 | 1.4 | 
C/C=C/C=C/C=C/c1nc2ccccc2n2cccc12 | 8.8 | 1.1 | 10.5 | 1.2 | 10.6 | 1.2 | 8.8 | 2.2 | 4.4 | 0.5 | 2.4 | 4.8 | 4.1 | 4.9 | 10.1 | 1 | 1 | 3.6
C/C=C/C=C/c1nc2ccccc2n2ccc(OCC)c12 | 3 | 0.4 | 4 | 0.5 | 4.5 | 1.5 | 9.6 |  | 9.6 | 0.9 | 0.5 |  | 2.3 | 3.5 | 7.7 | 0.6 | 1.1 | 
O[C@@H](c1cc(C(F)(F)F)nc2c(C(F)(F)F)cccc12)[C@H]1CCCCN1 [(S,R)-MEFLOQUINE] |  |  |  |  |  |  | 0.015 |  |  |  |  |  |  |  |  |  |  | 
N=C(N)c1ccc(OCCCCCOc2ccc(C(=N)N)cc2)cc1 [PENTAMIDINE] | 0.5 | 0.2 | 5.5 |  |  | 4.3 |  | 0.05 | 2.4 | 0.1 | 1 | 46 | 0.1 | 0.56 |  |  | 0.4 | 
